Assay results from patent publication US20090023814A1, “COMPOSITIONS AND METHODS HAVING MT1 RECEPTOR ACTIVITY” (AGI Therapeutics Research Ltd., priority 2007, published 2009).
Read-outs that look alike come from different tables or passages of the source.

How the values were obtained:
5-HT2B receptor = target: T1, 5-HT2B receptor (Homo sapiens, UniProt P41595); test: 5-HT2B binding affinity, human recombinant-CHO cells, 5-HT as control (Bonhaus); settings: for IC50: agonist 5-HT2B receptor
T1 construct: expressed in transfected cells; host or cells: CHO cells
T1 sequence (P41595 whole entry): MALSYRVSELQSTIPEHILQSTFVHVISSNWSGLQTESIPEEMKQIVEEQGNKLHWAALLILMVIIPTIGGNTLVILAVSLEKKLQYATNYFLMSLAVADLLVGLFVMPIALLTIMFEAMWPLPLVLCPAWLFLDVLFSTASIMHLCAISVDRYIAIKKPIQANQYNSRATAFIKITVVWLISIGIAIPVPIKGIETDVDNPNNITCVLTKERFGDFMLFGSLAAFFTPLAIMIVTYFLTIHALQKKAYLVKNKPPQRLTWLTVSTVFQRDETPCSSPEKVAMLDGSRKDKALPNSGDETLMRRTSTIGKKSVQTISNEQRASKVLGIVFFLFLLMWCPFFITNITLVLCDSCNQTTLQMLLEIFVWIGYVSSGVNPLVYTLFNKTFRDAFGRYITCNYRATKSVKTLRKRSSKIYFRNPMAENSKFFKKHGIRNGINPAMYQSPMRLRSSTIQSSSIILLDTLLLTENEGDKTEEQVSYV
Method: (§1) Each of those receptors were analyzed by methods known in the art. Initial assessment of binding at 100×10^−7 M (10 micro molar) was performed in duplicate.

melatonin ML-1 [1] = target: T2, melatonin ML-1; test: ML1 binding affinity, chicken brain; settings: Table 1; chicken brain
T2 construct: chicken brain
Method: as §1

melatonin ML-1 [2] = test: ML1 binding affinity, chicken brain; settings: Table 2; relative potency compared to CCB
Method: as §1

MT2 receptor = target: T3, MT2 receptor (Homo sapiens, UniProt P49286); settings: at 100×10^−7 M
T3 sequence (P49286 1-362): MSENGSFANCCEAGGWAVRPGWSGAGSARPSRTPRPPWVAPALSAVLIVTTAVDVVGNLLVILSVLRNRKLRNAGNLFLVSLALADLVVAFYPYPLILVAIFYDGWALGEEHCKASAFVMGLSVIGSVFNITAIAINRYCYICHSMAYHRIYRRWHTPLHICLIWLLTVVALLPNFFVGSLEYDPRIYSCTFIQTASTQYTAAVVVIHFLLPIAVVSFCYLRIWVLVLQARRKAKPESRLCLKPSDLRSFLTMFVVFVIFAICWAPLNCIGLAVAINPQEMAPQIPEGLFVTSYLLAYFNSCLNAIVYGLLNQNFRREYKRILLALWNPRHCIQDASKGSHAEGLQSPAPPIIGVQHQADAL
Method: as §1

[3] = target: melatonin MT-1 sub-receptor (Homo sapiens, UniProt P48039); settings: Table 7
Sequence of melatonin MT-1 sub-receptor (P48039 whole entry): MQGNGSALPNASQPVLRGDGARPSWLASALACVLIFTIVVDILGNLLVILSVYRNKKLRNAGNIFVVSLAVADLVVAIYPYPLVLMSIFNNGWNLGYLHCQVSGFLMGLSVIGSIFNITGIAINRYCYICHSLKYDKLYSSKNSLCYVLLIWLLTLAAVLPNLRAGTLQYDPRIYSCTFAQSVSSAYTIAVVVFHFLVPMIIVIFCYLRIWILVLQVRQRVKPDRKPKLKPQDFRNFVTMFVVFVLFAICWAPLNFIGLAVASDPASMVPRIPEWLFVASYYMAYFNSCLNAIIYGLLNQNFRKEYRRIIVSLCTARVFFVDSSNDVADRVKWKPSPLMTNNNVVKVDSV
Method: as §1

Row | IC50 (5-HT2B receptor; Table 1) [nM] | percentage of binding 5-HT2B (5-HT2B receptor; Table 1, at 100×10^−7 M) [%] | (IC50: 5-HT2B)/(IC50: CCB) (5-HT2B receptor; Table 2, relative potency compared to CCB) | IC50 (melatonin ML-1 [1]) [nM] | (IC50: ML-1)/(IC50: CCB) (melatonin ML-1 [2]) | SMILES | percentage of binding MT2 (MT2 receptor) [%] | % Binding MT-1 ([3]; at 0.1 ×10^−7 M) [%] | % Binding MT-1 ([3]; at 0.3 ×10^−7 M) [%] | % Binding MT-1 ([3]; at 1.0 ×10^−7 M) [%] | % Binding MT-1 ([3]; at 3.0 ×10^−7 M) [%]
1 | > 10000 | 3 | 21,739 | 2000 | 4,348 | COC(=O)C1=C(C)NC(C)=C(C(=O)OC(C)C)C1c1cccc2nonc12 (centres unmarked) [Isradipine] |  |  |  |  | 
2 | 1300 |  |  |  |  | CCOC(=O)C1=C(C)NC(C)=C(C(=O)OC)C1c1cccc(Cl)c1Cl (centres unmarked) [Felodipine] |  |  |  |  | 
3 |  |  |  |  |  | COc1ccc(CCN(C)CCC[C@](C#N)(c2ccc(OC)c(OC)c2)C(C)C)cc1OC [R-verapamil, (R)-verapamil] | 0 | 13 | 35 | 67 | 83
